The subject of assay [1] is GW-39 human colorectal tumors. Kind of assay: Survival in GW-39 intrapulmonary micrometastasis model in nude mice. The following applies: for increase of median survival time: FIG. 18, single agent versus untreated.
The next assay relates to TT MTC xenografts. Kind of assay: Chemotherapy of TT MTC xenografts in nude mice. Type of assay: in vivo, human. The following applies: for Mean survival time: untreated control 4 weeks; for growth inhibition of TT xenografts, drug given individually: doses of FIG. 3.
For assay [2], the system named is TT (human medullary thyroid) tumor cells. Type of assay: in vivo. The following applies: DTIC 75 μg/dose days 2, 3, 4, hMN-14 100 μg/dose from day 2; for mice with no palpable tumor at 7 weeks: 10 mice/group.
The next assay has as its system TT tumors. Kind of assay: Naked anti-CEA MAb alone on growth of TT tumors in nude mice. The following applies: for tumors less than 0.5 cm^3: at day-37, 0.5 mg/mouse weekly x4, untreated 40%.
Another assay concerns the target T1, CEA (Homo sapiens, UniProt P06731).
T1 sequence (P06731 35-676): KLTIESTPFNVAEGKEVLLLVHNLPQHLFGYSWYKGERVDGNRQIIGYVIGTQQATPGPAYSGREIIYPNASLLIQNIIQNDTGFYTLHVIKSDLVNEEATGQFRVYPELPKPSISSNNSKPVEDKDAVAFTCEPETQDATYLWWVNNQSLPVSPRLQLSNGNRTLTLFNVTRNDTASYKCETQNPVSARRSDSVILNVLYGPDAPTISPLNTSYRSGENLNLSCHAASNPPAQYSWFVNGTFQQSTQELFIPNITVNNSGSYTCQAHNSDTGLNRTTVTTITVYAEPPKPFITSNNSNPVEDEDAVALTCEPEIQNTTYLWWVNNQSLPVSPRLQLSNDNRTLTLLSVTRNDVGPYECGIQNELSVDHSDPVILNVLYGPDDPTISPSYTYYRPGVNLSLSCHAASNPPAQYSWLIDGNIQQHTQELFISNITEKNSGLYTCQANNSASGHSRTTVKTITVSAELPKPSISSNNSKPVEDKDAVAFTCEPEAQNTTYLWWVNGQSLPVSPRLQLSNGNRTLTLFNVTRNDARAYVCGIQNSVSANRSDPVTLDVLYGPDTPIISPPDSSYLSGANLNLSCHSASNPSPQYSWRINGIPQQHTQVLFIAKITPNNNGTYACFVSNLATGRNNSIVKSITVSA
As to conditions: Hansen et al., Cancer 71:3478 (1993); cited from earlier work.

A further assay has as its system meconium antigen. The following applies: Hansen et al., Cancer 71:3478 (1993); cited from earlier work.
The test system of a further assay is TT cells. Kind of assay: Flow cytometry reactivity with TT cells. On the technique in general: A flow cytometer gives signals particle by particle.
Assay [3] addresses T2, normal cross reactive antigen, NCA (Homo sapiens, UniProt P40199).
T2 sequence (P40199 35-320): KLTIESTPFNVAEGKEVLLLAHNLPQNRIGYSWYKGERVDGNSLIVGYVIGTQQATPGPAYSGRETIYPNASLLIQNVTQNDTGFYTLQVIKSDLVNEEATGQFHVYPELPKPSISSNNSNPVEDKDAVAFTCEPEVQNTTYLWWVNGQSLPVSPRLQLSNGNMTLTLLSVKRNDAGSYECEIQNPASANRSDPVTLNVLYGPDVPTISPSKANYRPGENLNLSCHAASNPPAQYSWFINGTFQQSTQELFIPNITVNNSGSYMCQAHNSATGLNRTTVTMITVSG
As to conditions: Hansen et al., Cancer 71:3478 (1993); cited from earlier work.

[4] abbreviates: FIG. 16 advanced colon cancer model, single agents.

Results on 8 molecules are retold here after US8778342B2, “Antibody therapy” (Immunomedics, Inc., priority 2002, dated 2014).

Entries after “also recorded” stand apart in the source; their conditions may differ.

`CCc1c2c(nc3ccc(OC(=O)N4CCC(N5CCCCC5)CC4)cc13)-c1cc3c(c(=O)n1C2)COC(=O)[C@]3(O)CC` [CPT-11, irinotecan]: the median survival time in assay [1] (10% GW-39 cell suspension, treatment from day 0, CPT-11 10% MTD (80 μg/d x 5 days), hMN14 100 μg/d, untreated 56 days) turned out to be 63 days; in assay [1] (FIG. 17 reduced tumor burden model, 5% tumor cell suspension, dosages of Example 14), 70 days. Besides, the median survival was found to be 63 days in assay [1] (FIG. 16 advanced colon cancer model, hMN-14 100 μg/day from day 0, CPT-11 60 μg/day over 5 days); 63 days in assay [1] (pretreatment study, CPT-11 on day 0, alone or co-treatment with hMN-14, untreated 35 days); 70 days in assay [1] (pretreatment study, CPT-11 on day 3, alone or after 3-day pretreatment with hMN-14, untreated 35 days). For the same molecule, the effect on survival entry in assay [1] (setting [4]) is “only a modest effect”. Moreover, the “increase of median survival time” value in assay [1] (5% tumor cell suspension) stood at 76%.
For the molecule `CN(C)/N=N/c1[nH]cnc1C(N)=O` [DTIC, dacarbazine, reference compound], in the assay with TT MTC xenografts, the Mean survival time is recorded as 11 weeks. For the same molecule, in assay [2], the “Mean tumor volumes at 7 weeks” value was 0.284 ± 0.197 cm^3 and the “mice with no palpable tumor at 7 weeks” value is on record as 1/10.
As to `O=P1(N(CCCl)CCCl)NCCCO1` (stereo not shown) [cyclophosphamide], in the assay with TT MTC xenografts, the “growth inhibition of TT xenografts, drug given individually” value (“growth inhibition of TT xenografts” for short) is reported as “significant growth inhibition” and the Mean survival time is listed as 8 weeks. Moreover, the “Log rank analysis of survival versus the untreated group” value in the assay with TT MTC xenografts (individual drugs) was “significant difference”.
As for `COc1cccc2c1C(=O)c1c(O)c3c(c(O)c1C2=O)C[C@@](O)(C(=O)CO)C[C@@H]3O[C@H]1C[C@H](N)[C@H](O)[C@H](C)O1` [doxorubicin], the “growth inhibition of TT xenografts” value in the assay on TT MTC xenografts was “significant growth inhibition”.
In the case of `CC[C@]1(O)C[C@H]2CN(CCc3c([nH]c4ccccc34)[C@@](C(=O)OC)(c3cc4c(cc3OC)N(C=O)[C@H]3[C@@](O)(C(=O)OC)[C@H](OC(C)=O)[C@]5(CC)C=CCN6CC[C@]43[C@@H]65)C2)C1` [vincristine], in the assay with TT MTC xenografts, the “growth inhibition of TT xenografts” value is “not”.
Consider “hLL2: negative control humanized MAb, anti-CD22 [reference compound]”, for which, in the assay on TT tumors, the “tumors less than 0.5 cm^3” value is listed as 29%.
As to “hMN-14: humanized (CDR-grafted) Class III anti-CEA monoclonal antibody MN-14, naked”, the effect on survival entry was “No effect” in assay [1] (setting [4]) and “no apparent effect” in assay [1] (FIG. 17 reduced tumor burden model, 5% tumor cell suspension). In assay [1] (5% tumor cell suspension), the “increase of median survival time” value was 21%. The “efficacy on high (interferon-gamma induced) versus low CEA-expressing tumor cells” value in assay [1] (FIG. 21) is on record as “improved efficacy”. The “mean tumor sizes versus untreated animals” value with TT tumors (0.5 mg single i.v. injection eleven days post tumor cell injection) was “no significant differences”. Further, in the assay with TT tumors (0.5 mg single i.v. injection on day-1 post tumor injection), the “tumor growth versus untreated group” value was “significant growth delay”. Further, the “inhibition of tumor size compared to the untreated animals” value with TT tumors (0.5 mg single i.v. injection one day post tumor cell injection, between day-32 and day-60) is given as 64-70%. Further, the “tumors less than 0.5 cm^3” value in the assay with TT tumors was determined as 87%. Moreover, in assay [2], the “Mean tumor volumes at 7 weeks” value is 0.899±0.545 cm^3. The “mice with no palpable tumor at 7 weeks” value in assay [2] is 0/10. Moreover, in assay [2] (nude mice), the “delay / inhibition of tumor growth” value is listed as “Significant delays in tumor growth; also recorded: significant effect on inhibiting tumor growth”.

B1: murine MN-14: murine Class III anti-CEA MAb, reacting with CEA, unreactive with NCA and meconium antigen (antibody, listed as Mus sp., V domains shown)
VH: EVKLLESGGGLVQSGGSLKLSCAASGFDFTTYWMSWVRQAPGKGLEWIGEIHPDSSTINYAPSLKDKFIVSRDNAKNTLYLQMSKVRSEDTALYYCASLYFGFPWFAYWGQGTPVTVSA
VL: EIQLTQSHKMMSTSVGDRVSITCKASQDVGTSVAWYQQRPGQSPKLLIYWTSTRHTGVPDRFTGSVSGTDFTLTITNVQSEDLADYFCQQYSLYRSFGGGTKLEIK
modifications: constant regions
Take B1: the “reactivity with CEA” value with CEA was “reacting with CEA”. In addition, in the assay on meconium antigen, the “reactivity with meconium antigen” value was “unreactive”. Further, the “reactivity with TT cells by flow cytometry” value in the assay with TT cells is listed as “react with TT cells”. For the same molecule, the “reactivity with NCA” value in assay [3] is “unreactive”.
